These results are taken from patent publication US20090215778A1, “Alpha-substituted Arylmethyl Piperazine Pyrazolo [1,5-alpha]Pyrimidine Amide Derivatives” (priority 2007, published 2009).

The target in test [1] is T1, HIV Env six-helix bundle (6HB) structure (Human immunodeficiency virus type 1 group M subtype B, UniProt P04579).
T1 construct: H9 cells chronically infected with HIV-1 (H9/HIV-1RF); endogenous in cells; host or cells: H9 cells chronically infected with HIV-1 strain RF (Env is made from the virus in the infected cells, not by transfection)
Briefly: Six-helix bundle (6HB) assay. It is filed as cell-based, HIV-1 (strain RF). Here is the method:
3×10^6H9 cells were incubated with 1 mL of HIV-1 (strain RF) supplemented with 40 μg/mL of DEAE-dextran. Virus and cells were incubated together at 37° C. for 2-4 hours with sporadic shaking to resuspend cells. 10 mL of media (RPMI 1640 containing 10% fetal bovine serum and supplemented with 50 μg/mL gentamicin) was then added and the virus-cell coculture was incubated at 37° C. in a humidified 5% CO2 incubator. 3 days post-infection and every 2-3 days thereafter, the infected H9/HIV-1RF cells were centrifuged, the supernatant was removed, and the cells were resuspended at a density of 0.3×10^6 cells/mL in media (RPMI 1640 containing 10% fetal bovine serum and supplemented with 50 μg/mL gentamicin). Chronically infected H9/HIV-1RF cells were used in experiments starting 12-15 days after infection and up to 40 days post-infection.
This assay determines the effect of compounds on conformational changes in HIV envelope glycoprotein (Env) that are required in order for Env to mediate the fusion of the viral and cellular membranes during virus entry and infection. Specifically, this assay measures the effect of compounds on the formation of the HIV Env six-helix bundle (6HB) structure.
H9 cells chronically infected with HIV-1 (H9/HIV-1RF) were resuspended in Stain/Wash Buffer (1% bovine serum albumin, 0.1% sodium azide in phosphate-buffered saline) and aliquoted at 2.5×10^5 cells per well into 96-well V-bottom plates containing various concentrations of test compounds. Cells and compounds were incubated for 30 minutes at 37° C. Recombinant soluble CD4 (sCD4) was then added to a final concentration of 1 μg/mL. Negative control wells contained no sCD4 and no test compound. Positive control wells contained sCD4 but no test compound. The plate was incubated for 1 hour at 37° C. to allow the sCD4 to bind to HIV Env and induce conformational changes in the Env protein. Antibody that is specific for the HIV Env six-helix bundle conformation was then added (1 μL polyclonal rabbit serum per well), and the plate was incubated for an additional 1 hour at 37° C. to permit antibody binding. The cells were then washed once with Stain/Wash Buffer to remove compound and excess antibody. The cells were resuspended in Stain/Wash Buffer containing PE-labeled anti-rabbit secondary antibody (KPL) at 0.25 μg per well. The cells were incubated for 45 min at 4° C. to permit secondary antibody binding. Fluorescence was detected using a BD FACSArray™ bioanalyzer. Compounds that inhibited Env conformational changes were identified as those that decreased primary antibody binding to the six-helix bundle epitope resulting in a decrease in fluorescence signal.

The test system of test [2] is HIV-1, NL4-3 strain. Kind of test: Virus infection assay (virus entry and single-cycle infection). It is filed as cell-based. The conditions noted are these: Human immunodeficiency virus 1, NL43, TZM-b1, read-out: Nl4. Here is the method: TZM-b1 indicator cells were propagated in Dulbecco's Modified Eagle's Medium (DMEM) containing 10% fetal bovine serum (FBS, heat-inactivated) and supplemented with gentamicin (50 ug/mL).
This assay determines the effects of compounds on virus entry and single-cycle infection of cells. In this assay, virus (HIV-1, NL4-3 strain) is added to indicator cells expressing the CD4 receptor and both the CXCR4 and CCR5 co-receptor. The cells contain both a lac Z and a luciferase reporter gene under control of the viral LTR transcription promoter. The cells and virus are incubated together in the presence of various concentrations of test compounds. Successful infection of the cells by the virus permits activation of the reporter gene by the viral Tat transcription factor. The resulting beta-galactosidase or luciferase activity is quantitated using a chemiluminescent substrate and a luminescent plate reader.
Specifically, one day prior to infection, 1.5×10^4 TZM-b1 indicator cells were added to each well of a 96-well microtiter plate. On the day of the experiment, virus (MOI 0.01) in 50 μL of medium (Dulbecco's Modified Eagle's Medium) supplemented with DEAE-dextran at a final concentration of 80 μg/mL was added to cells along with various concentrations of test compound in 50 μL of Dulbecco's Modified Eagle's Medium. Control wells had virus alone. Following a 4 hr incubation at 37° C., complete media [DMEM supplemented with 10% fetal bovine serum (FBS, heat-inactivated) and gentamicin (50 ug/mL)] was added. One day post-infection the level of virus infection was quantitated by detection of β-galactosidase expression using the Gal-Screen system (Applied Biosystems).

SMILES strings stand for the structures.

T1 sequence (P04579 32-519): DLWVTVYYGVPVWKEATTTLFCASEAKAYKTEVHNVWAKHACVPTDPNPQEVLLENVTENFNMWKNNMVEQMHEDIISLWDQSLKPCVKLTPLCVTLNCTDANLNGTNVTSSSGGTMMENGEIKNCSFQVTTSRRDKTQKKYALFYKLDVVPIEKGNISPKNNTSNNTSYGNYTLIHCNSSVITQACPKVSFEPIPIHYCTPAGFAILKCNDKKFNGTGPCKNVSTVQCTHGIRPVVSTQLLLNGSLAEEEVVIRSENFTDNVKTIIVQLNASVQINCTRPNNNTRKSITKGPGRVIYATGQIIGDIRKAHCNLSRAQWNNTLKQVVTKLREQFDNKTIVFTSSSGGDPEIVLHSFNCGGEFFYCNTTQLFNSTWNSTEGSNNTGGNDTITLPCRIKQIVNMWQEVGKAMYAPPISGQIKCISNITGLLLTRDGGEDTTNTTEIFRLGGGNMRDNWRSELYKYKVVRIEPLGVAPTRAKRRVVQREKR
T1 sequence (P04579 520-865): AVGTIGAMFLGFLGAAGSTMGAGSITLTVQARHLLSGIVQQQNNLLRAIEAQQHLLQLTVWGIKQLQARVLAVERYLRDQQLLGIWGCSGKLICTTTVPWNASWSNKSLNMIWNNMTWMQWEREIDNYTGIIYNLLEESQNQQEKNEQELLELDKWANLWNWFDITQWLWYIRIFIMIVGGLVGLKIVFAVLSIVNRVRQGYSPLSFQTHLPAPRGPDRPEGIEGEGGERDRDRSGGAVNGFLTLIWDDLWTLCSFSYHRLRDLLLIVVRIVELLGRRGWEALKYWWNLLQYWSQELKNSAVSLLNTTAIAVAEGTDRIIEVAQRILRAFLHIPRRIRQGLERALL

As to `COc1ccc(-c2nc3c(C(=O)N4CCN(C(CO)c5cccc(NC(=O)C6CC6)c5)C[C@H]4C)cnn3c(C(F)(F)F)c2C)cc1` (stereo partly drawn) [cyclopropanecarboxamide, N-[3-[2-hydroxy-1-[(3R)-4-[[5-(4-methoxyphenyl)-6-methyl-7-(trifluoromethyl)pyrazolo[1,5-α]pyrimidin-3-yl]carbonyl]-3-methyl-1-piperazinyl]ethyl]phenyl]-], the IC50 in test [1] and in test [2] was < 1000 nM throughout.

As to `COc1ccc(-c2nc3c(C(=O)N4CCN([C@@H](CO)c5ccccc5)C[C@H]4C)cnn3c(C(F)(F)F)c2C)cc1` [drawing 184, methanone, [(2R)-4-[(1R)-2-hydroxy-1-phenylethyl]-2-methyl-1-piperazinyl][5-(4-methoxyphenyl)-7-(trifluoromethyl)pyrazolo[1,5-α]pyrimidin-3-yl]-], the IC50 in test [1] and in test [2] was < 1000 nM each time.

For the molecule `COc1ccc(-c2nc3c(C(=O)N4CCN(C(CO)c5cccc(C(C)=O)c5)C[C@H]4C)cnn3c(C(F)(F)F)c2C)cc1` (stereo partly drawn) [ethanone, 1-[3-[2-hydroxy-1-[(3R)-4-[[5-(4-methoxyphenyl)-6-methyl-7-(trifluoromethyl)pyrazolo[1,5-α]pyrimidin-3-yl]carbonyl]-3-methyl-1-piperazinyl]ethyl]phenyl]-], the IC50 in test [1] and in test [2] was < 1000 nM each time.

In the case of `COc1ccc(-c2nc3c(C(=O)N4CCN(C(CO)c5cc(C(C)=O)ccc5F)C[C@H]4C)cnn3c(C(F)(F)F)c2C)cc1` (stereo partly drawn) [ethanone, 1-[4-fluoro-3-[2-hydroxy-1-[(3R)-4-[[5-(4-methoxyphenyl)-6-methyl-7-(trifluoromethyl)pyrazolo[1,5-α]pyrimidin-3-yl]carbonyl]-3-methyl-1-piperazinyl]ethyl]phenyl]-], the IC50 in test [1] and in test [2] was < 1000 nM throughout.

As to `COc1ccc(-c2nc3c(C(=O)N4CCN([C@H](CO)c5ccc(C(C)=O)s5)C[C@H]4C)cnn3c(C(F)(F)F)c2C)cc1` [ethanone, 1-[5-[(1R)-2-hydroxy-1-[(3R)-4-[[5-(4-methoxyphenyl)-6-methyl-7-(trifluoromethyl)pyrazolo[1,5-α]pyrimidin-3-yl]carbonyl]-3-methyl-1-piperazinyl]ethyl]-2-thienyl]-], the IC50 in test [1] was < 1000 nM; in test [2], 1100 to 10000 nM.

On to `COc1ccc(-c2nc3c(C(=O)N4CCN([C@@H](CO)c5ccc(C(C)=O)s5)C[C@H]4C)cnn3c(C(F)(F)F)c2C)cc1` [ethanone, 1-[5-[(1S)-2-hydroxy-1-[(3R)-4-[[5-(4-methoxyphenyl)-6-methyl-7-(trifluoromethyl)pyrazolo[1,5-α]pyrimidin-3-yl]carbonyl]-3-methyl-1-piperazinyl]ethyl]-2-thienyl]-], for which the figures for the IC50 in test [1] and in test [2] were < 1000 nM and 1100 to 10000 nM, respectively.

On to `COc1ccc(-c2nc3c(C(=O)N4CCN(C(CNS(C)(=O)=O)c5ccccc5)C[C@H]4C)cnn3c(C(F)(F)F)c2C)cc1` (stereo partly drawn) [methanesulfonamide, N-[2-[(3R)-4-[[5-(4-methoxyphenyl)-6-methyl-7-(trifluoromethyl)pyrazolo[1,5-α]pyrimidin-3-yl]carbonyl]-3-methyl-1-piperazinyl]-2-phenylethyl]-, 2,2,2-trifluoroacetate], for which the IC50 in test [1] and in test [2] was < 1000 nM each time.

In the case of `COc1ccc(-c2nc3c(C(=O)N4CCN([C@@H](C)c5cccc(NS(C)(=O)=O)c5)C[C@H]4C)cnn3c(C(F)(F)F)c2C)cc1` [methanesulfonamide, N-[3-[(1S)-1-[(3R)-4-[[5-(4-methoxyphenyl)-6-methyl-7-(trifluoromethyl)pyrazolo[1,5-α]pyrimidin-3-yl]carbonyl]-3-methyl-1-piperazinyl]ethyl]phenyl]-], the IC50 in test [1] and in test [2] was < 1000 nM in each case.

With `COc1ccc(-c2nc3c(C(=O)N4CCN(C(CO)c5ccccc5)CC4)cnn3c(C(F)(F)F)c2C)cc1` (stereo not drawn) [methanone, [4-(2-hydroxy-1-phenylethyl)-1-piperazinyl][5-(4-methoxyphenyl)-6-methyl-7-(trifluoromethyl)pyrazolo[1,5-α]pyrimidin-3-yl]-], the IC50 in test [1] and in test [2] was < 1000 nM each time.

As for `COc1ccc2c(c1)CCc1c-2nc2c(C(=O)N3CCN([C@@H](CO)c4ccccc4)C[C@H]3C)cnn2c1C(F)(F)F` [methanone, [5,6-dihydro-3-methoxy-7-(trifluoromethyl)benzo[h]pyrazolo[5,1-b]quinazolin-11-yl][(2R)-4-[(1R)-2-hydroxy-1-phenylethyl]-2-methyl-1-piperazinyl]-], the IC50 in test [1] and in test [2] was < 1000 nM throughout.

On to `Cc1c(-c2ccc(C3CC3)cc2)nc2c(C(=O)N3CCN([C@@H](CO)c4ccccc4)C[C@H]3C)cnn2c1C(F)(F)F` [methanone, [5-(4-cyclopropylphenyl)-6-methyl-7-(trifluoromethyl)pyrazolo[1,5-α]pyrimidin-3-yl][(2R)-4-[(1R)-2-hydroxy-1-phenylethyl]-2-methyl-1-piperazinyl]-], for which the IC50 in test [1] and in test [2] was < 1000 nM in each case.

In the case of `CCc1ccc(-c2nc3c(C(=O)N4CCN([C@@H](CO)c5ccccc5)C[C@H]4C)cnn3c(C(F)(F)F)c2C)cc1` [methanone, [5-(4-ethylphenyl)-6-methyl-7-(trifluoromethyl)pyrazolo[1,5-α]pyrimidin-3-yl][(2R)-4-[(1R)-2-hydroxy-1-phenylethyl]-2-methyl-1-piperazinyl]-], the IC50 in test [1] and in test [2] was < 1000 nM throughout.

On to `C=CCN(C)CC(c1ccccc1)N1CCN(C(=O)c2cnn3c(C(F)(F)F)c(C)c(-c4ccc(OC)cc4)nc23)[C@H](C)C1` (stereo partly drawn) [methanone, [5-(4-methoxyphenyl)-6-methyl-7-(trifluoromethyl)pyrazolo[1,5-α]pyrimidin-3-yl][(2R)-2-methyl-4-[2-(methyl-2-propen-1-ylamino)-1-phenylethyl]-1-piperazinyl]], for which the IC50 in test [1] and in test [2] was < 1000 nM throughout.

For `CNCC(c1ccccc1)N1CCN(C(=O)c2cnn3c(C(F)(F)F)c(C)c(-c4ccc(OC)cc4)nc23)[C@H](C)C1` (stereo partly drawn) [methanone, [5-(4-methoxyphenyl)-6-methyl-7-(trifluoromethyl)pyrazolo[1,5-α]pyrimidin-3-yl][(2R)-2-methyl-4-[2-(methylamino)-1-phenylethyl]-1-piperazinyl]-], the IC50 in test [1] and in test [2] was < 1000 nM throughout.

In the case of `COc1ccc(-c2nc3c(C(=O)N4CCN([C@H](C)c5cc(F)cc(F)c5F)C[C@H]4C)cnn3c(C(F)(F)F)c2C)cc1` [methanone, [5-(4-methoxyphenyl)-6-methyl-7-(trifluoromethyl)pyrazolo[1,5-α]pyrimidin-3-yl][(2R)-2-methyl-4-[(1R)-1-(2,3,5-trifluorophenyl)ethyl]-1-piperazinyl]-], the IC50 in test [1] and in test [2] was < 1000 nM in each case.

On to `COc1ccc(-c2nc3c(C(=O)N4CCN([C@H](C)c5cc(F)c(F)c(F)c5)C[C@H]4C)cnn3c(C(F)(F)F)c2C)cc1` [methanone, [5-(4-methoxyphenyl)-6-methyl-7-(trifluoromethyl)pyrazolo[1,5-α]pyrimidin-3-yl][(2R)-2-methyl-4-[(1R)-1-(3,4,5-trifluorophenyl)ethyl]-1-piperazinyl]-], for which the IC50 in test [1] and in test [2] was < 1000 nM throughout.
